Values of other authors in patent US8057823B2, “Lipid nanocapsules, preparation process and use as medicine” (Universite d'Angers, priority 2000, dated 2011).

Structure (SMILES): CS(=O)(=O)OCCCCOS(C)(=O)=O [busulfan]
- solubility in water: virtually insoluble

Structure (SMILES): CC(=O)[C@H]1CC[C@H]2[C@@H]3CCC4=CC(=O)CC[C@]4(C)[C@H]3CC[C@]12C [progesterone]
- solubility in water: virtually insoluble
